Experimental data taken from patent US20260250318A1, “COMPOSITIONS AND METHODS FOR CROSSING THE BLOOD BRAIN BARRIER” (VOYAGER THERAPEUTICS, INC., priority 2022, published 2026).

Legend:
Conditions in all cases: synthetic library passage 3, intravenous, relative to wild-type AAV9
[1] = test system: brain; assay: NGS fold enrichment of synthetic library (passage 3) in BALB/c mice, first cross-species screen; assay type: in vivo
Experimental: (§1) After creation of the synthetic library with the sub-selected variants, the synthetic library was screened (passage 3) in two NHPs (2-4 years of age) and two strains of mice, BALB/c (n=3, 6-8 weeks of age) and C57Bl/6 mice (n=3, 6-8 weeks of age), in a first cross-species evolution screen. The animals were injected intravenously with the synthetic library. After a period in vivo, (e.g., 28-days) RNA was extracted from nervous tissue, e.g., brain, spinal cord, and DRG of the NHPs and the brains of mice. Following RNA recovery and RT-PCR amplification, a systematic NGS enrichment analysis was performed, and the peptides comprised within the variants were identified and the capsid enrichment ratio for each variant compared to the wild-type AAV9 control was calculated (fold enrichment relative to wild-type AAV9) (Table 9). […] All animals were dosed intravenously at […] across the screen.

[2] = test system: brain; assay: NGS fold enrichment of synthetic library (passage 3) in C57Bl/6 mice, first cross-species screen; assay type: in vivo
Experimental: as §1

[3] = test system: brain, spinal cord, and DRG of the NHPs; assay: NGS fold enrichment of synthetic library (passage 3) in NHPs, first cross-species screen; assay type: in vivo, cynomolgus macaques (Macaca fascicularis)
Experimental: as §1

[4] = RNA from brain of BALB/c mice, NGS
[5] = RNA from brain of C57Bl/6 mice, NGS
[6] = RNA from spinal cord of NHPs, NGS

Sequence	Fold enrichment over AAV9 in the brain of Mice (BALB/c) [1, 4] [fold]	Fold enrichment over AAV9 in the brain of Mice (C57Bl/6) [2, 5] [fold]	Fold enrichment over AAV9 in the brain of NHPs ([3]; RNA from brain of NHPs, NGS) [fold]	Fold enrichment over AAV9 in the spinal cord of NHPs [3, 6] [fold]	Fold enrichment over AAV9 in the brain of Mice (BALB/c) ([1]; RNA NGS, brain of BALB/c mice) [fold]	Fold enrichment over AAV9 in the brain of Mice (C57Bl/6) ([2]; RNA NGS, brain of C57Bl/6 mice) [fold]	Fold enrichment over AAV9 in the brain of NHPs ([3]; RNA NGS, brain of NHPs) [fold]	Fold enrichment over AAV9 in the spinal cord of NHPs ([3]; RNA NGS, spinal cord of NHPs) [fold]
GAFHLAASGQNQQT	0.775	0.994	1.369	18.165	–	–	–	–
GAGLIMHSGQNQQT	–	–	–	–	0.511	0.565	1.425	1.408
GAGSIIPSGQNQQT	–	–	–	–	0.249	0.595	2.129	7.164
GAGVHMVSGQNQQT	–	–	–	–	0.791	1.055	1.987	6.488
GALTVMQSGQNQQT	–	–	–	–	0.199	0.246	2.381	0.430
GALVSPISGQNQQT	–	–	–	–	0.347	0.640	1.912	1.051
GAMTVTISGQNQQT	–	–	–	–	0.257	0.443	1.542	6.249
GAMVSHSSGQNQQT	–	–	–	–	0.868	0.739	1.833	8.999
GANMGHVSGQNQQT	–	–	–	–	1.138	1.302	2.020	0.810
GARIQNASGQKQQT	–	–	–	–	1.039	1.220	2.300	2.103
GASHMSISGQNQQT	0.374	0.404	1.284	0.462	–	–	–	–
GASSLATSGQNQQT	0.217	0.423	1.337	0.703	–	–	–	–
GATLQVHSGQNQQT	–	–	–	–	0.545	0.623	2.122	2.219
GAVGHSYSGQNQQT	–	–	–	–	0.536	0.306	1.706	0.808
GAYGMVSSGQNQQT	–	–	–	–	0.773	0.732	1.518	3.469
GCTTRLNSGQNQQT	0.618	0.184	1.276	0.000	–	–	–	–

Sequence	Fold enrichment over AAV9 in the brain of Mice (BALB/c) [1, 4] [fold]	Fold enrichment over AAV9 in the brain of Mice (C57Bl/6) [2, 5] [fold]	Fold enrichment over AAV9 in the brain of NHPs ([3]; RNA from brain of NHPs, NGS) [fold]	Fold enrichment over AAV9 in the spinal cord of NHPs [3, 6] [fold]	Fold enrichment over AAV9 in the brain of Mice (BALB/c) ([1]; RNA NGS, brain of BALB/c mice) [fold]	Fold enrichment over AAV9 in the brain of Mice (C57Bl/6) ([2]; RNA NGS, brain of C57Bl/6 mice) [fold]	Fold enrichment over AAV9 in the brain of NHPs ([3]; RNA NGS, brain of NHPs) [fold]	Fold enrichment over AAV9 in the spinal cord of NHPs ([3]; RNA NGS, spinal cord of NHPs) [fold]
GDAGVRSSGQNQQT	–	–	–	–	1.193	1.033	2.068	3.918
GDMTRSSSGQNQQT	–	–	–	–	1.038	1.145	1.075	0.802
GDSSLRHSGQNQQT	–	–	–	–	0.412	0.662	2.194	0.000
GDSSSRISGQNQQT	0.348	0.916	1.151	3.787	–	–	–	–
GEKAVTSSGQNQQT	0.327	0.558	1.402	0.998	–	–	–	–
GERAFPTSGQNQQT	–	–	–	–	0.362	0.972	1.775	6.515
GERHTVLSGQNQQT	–	–	–	–	0.607	1.027	3.289	3.008
GESRAVLSGQNQQT	–	–	–	–	0.368	0.789	1.476	0.938
GEVSRVLSGQNQQT	0.440	1.150	1.318	0.437	–	–	–	–
GFAHQASSGQNQQT	–	–	–	–	1.080	1.638	1.587	1.852
GFIFPKVSGQNQQT	0.692	1.764	1.237	0.000	–	–	–	–
GFMSYKGSGQNQQT	–	–	–	–	0.569	1.808	2.865	0.209
GFNGSPSSGQNQQT	–	–	–	–	0.924	2.338	2.609	12.197
GFSSAVHSGQNQQT	–	–	–	–	0.210	0.218	1.502	1.234
GGAGSAHSGQNQQT	–	–	–	–	1.092	0.474	1.003	6.108
